Read-outs that look alike come from different tables or passages of the source.
Key:
SNU-C1 = assay: cells; assay type: cell-based
HT-29 = assay: cells; assay type: cell-based
HeLa cells = assay: cells; assay type: cell-based; conditions: read-out: CellCycle G2/M
Colo320 = assay: cells; assay type: cell-based
HCT116 = assay: cells; assay type: cell-based
hFLT3 = target: T1, hFLT3 (Homo sapiens, UniProt P36888); assay: Cerep LANCE kinase assay hFLT3 (S1 assay 35); assay type: biochemical
T1 construct: purchased Cerep (LANCE kinase assay platform, contract assay)
T1 sequence (P36888 27-993): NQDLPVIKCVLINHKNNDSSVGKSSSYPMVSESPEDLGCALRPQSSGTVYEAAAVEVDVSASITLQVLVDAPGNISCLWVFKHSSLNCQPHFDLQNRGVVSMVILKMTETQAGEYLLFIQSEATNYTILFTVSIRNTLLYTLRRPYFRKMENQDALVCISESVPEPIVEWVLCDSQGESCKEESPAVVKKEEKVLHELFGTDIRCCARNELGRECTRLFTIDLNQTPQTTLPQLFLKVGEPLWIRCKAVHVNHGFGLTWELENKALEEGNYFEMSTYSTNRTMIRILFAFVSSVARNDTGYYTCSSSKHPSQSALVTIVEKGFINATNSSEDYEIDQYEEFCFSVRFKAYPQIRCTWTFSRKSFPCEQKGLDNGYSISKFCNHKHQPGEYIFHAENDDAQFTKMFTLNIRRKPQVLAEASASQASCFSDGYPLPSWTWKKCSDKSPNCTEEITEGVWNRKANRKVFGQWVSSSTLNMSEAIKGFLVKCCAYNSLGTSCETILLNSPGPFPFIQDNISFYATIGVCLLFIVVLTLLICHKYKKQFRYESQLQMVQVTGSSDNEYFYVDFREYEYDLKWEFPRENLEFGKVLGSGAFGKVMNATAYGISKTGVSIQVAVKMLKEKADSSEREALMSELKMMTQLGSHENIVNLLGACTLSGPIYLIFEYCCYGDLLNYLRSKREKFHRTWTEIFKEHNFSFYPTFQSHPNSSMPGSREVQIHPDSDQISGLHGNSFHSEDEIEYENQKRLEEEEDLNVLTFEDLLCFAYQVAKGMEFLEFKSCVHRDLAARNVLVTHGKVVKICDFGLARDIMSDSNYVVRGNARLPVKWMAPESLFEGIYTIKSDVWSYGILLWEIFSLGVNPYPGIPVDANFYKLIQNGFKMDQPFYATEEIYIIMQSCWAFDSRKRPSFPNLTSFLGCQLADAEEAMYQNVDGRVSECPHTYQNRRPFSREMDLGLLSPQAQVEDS

hJAK2 = target: T2, hJAK2 (Homo sapiens, UniProt O60674); assay: Cerep LANCE kinase assay hJAK2 (S1 assay 33); assay type: biochemical
T2 construct: purchased Cerep (LANCE kinase assay platform, contract assay)
T2 sequence (O60674 whole entry): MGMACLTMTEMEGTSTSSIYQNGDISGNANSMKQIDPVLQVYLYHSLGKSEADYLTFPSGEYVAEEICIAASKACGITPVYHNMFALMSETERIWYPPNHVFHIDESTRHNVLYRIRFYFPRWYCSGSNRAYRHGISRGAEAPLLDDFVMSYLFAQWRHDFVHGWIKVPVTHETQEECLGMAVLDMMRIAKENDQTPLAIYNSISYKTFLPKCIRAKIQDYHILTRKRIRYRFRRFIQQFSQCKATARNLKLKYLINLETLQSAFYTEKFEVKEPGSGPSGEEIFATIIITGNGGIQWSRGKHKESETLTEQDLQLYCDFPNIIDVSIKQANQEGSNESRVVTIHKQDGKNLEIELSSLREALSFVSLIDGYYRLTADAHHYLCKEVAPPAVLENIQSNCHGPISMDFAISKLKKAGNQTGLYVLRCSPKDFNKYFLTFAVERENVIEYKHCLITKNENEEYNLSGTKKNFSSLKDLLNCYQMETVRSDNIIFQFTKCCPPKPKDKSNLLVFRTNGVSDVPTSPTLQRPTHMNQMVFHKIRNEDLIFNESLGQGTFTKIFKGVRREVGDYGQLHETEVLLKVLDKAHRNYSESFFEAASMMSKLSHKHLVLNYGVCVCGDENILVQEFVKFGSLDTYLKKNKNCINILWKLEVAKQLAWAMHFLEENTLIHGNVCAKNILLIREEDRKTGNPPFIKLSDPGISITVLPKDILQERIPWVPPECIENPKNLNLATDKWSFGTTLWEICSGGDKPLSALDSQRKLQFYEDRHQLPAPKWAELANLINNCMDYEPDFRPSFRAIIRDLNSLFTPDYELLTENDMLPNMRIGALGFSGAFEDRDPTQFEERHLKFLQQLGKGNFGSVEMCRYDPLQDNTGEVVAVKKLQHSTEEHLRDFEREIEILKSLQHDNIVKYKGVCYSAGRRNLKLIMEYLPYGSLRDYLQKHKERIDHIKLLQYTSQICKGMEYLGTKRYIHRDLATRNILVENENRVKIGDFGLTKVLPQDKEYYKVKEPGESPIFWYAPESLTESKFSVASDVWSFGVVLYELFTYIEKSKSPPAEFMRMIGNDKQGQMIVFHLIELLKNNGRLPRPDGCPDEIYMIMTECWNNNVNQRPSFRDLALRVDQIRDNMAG

INS-1E cells = assay: cells; assay type: cell-based, rat
hKDR = target: T3, hKDR (Homo sapiens, UniProt P35968); assay: Cerep LANCE kinase assay hKDR (S1 assay 32); assay type: biochemical
T3 construct: purchased Cerep (LANCE kinase assay platform, contract assay)
T3 sequence (P35968 20-1356): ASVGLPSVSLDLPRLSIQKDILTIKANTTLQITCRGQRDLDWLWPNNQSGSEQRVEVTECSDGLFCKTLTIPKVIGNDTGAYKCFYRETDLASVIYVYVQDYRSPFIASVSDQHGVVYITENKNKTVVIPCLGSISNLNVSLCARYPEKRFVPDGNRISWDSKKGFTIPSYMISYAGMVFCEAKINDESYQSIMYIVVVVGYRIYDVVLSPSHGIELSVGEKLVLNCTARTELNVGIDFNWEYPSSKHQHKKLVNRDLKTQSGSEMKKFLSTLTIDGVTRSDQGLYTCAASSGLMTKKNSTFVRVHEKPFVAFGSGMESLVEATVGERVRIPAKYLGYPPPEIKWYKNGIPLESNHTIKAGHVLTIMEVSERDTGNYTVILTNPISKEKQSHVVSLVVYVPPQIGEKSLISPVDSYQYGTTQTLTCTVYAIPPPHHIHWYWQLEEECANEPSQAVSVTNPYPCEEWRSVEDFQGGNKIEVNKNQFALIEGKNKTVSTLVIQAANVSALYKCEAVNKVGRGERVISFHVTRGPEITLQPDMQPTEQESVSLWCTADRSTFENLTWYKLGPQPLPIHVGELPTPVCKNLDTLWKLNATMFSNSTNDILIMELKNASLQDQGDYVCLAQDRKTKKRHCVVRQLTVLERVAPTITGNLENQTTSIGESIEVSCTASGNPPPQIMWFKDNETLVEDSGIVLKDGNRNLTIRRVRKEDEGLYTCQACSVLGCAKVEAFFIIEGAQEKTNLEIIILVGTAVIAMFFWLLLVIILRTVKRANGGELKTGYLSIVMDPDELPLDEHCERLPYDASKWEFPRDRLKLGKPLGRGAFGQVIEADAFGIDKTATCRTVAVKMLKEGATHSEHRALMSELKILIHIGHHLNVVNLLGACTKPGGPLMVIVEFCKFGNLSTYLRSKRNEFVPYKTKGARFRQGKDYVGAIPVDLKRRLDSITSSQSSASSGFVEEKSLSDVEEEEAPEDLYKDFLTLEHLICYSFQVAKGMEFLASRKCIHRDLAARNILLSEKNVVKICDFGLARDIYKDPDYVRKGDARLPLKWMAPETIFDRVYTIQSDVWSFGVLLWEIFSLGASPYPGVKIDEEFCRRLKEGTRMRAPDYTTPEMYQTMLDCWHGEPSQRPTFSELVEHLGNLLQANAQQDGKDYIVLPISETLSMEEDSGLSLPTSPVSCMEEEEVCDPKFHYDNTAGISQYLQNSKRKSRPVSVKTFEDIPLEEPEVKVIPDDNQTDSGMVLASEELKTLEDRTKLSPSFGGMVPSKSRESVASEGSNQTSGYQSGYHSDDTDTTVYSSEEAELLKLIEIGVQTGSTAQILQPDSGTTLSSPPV

[1] = test system: endothelial tube formation in co-cultures of ECFCs and ADSCs treated with VEGF; assay: cells; assay type: cell-based, human
SW480 = assay: cells; assay type: cell-based
[2] = test system: HCT116 cells treated with a GSK3β inhibitor; assay: cells; assay type: cell-based
[3] = test system: nuclear β-catenin in C2C12 cells; assay: cells; assay type: cell-based
hGSK3b = target: T4, hGSK3b (Homo sapiens, UniProt P49841); assay: Cerep LANCE kinase assay hGSK3b (S1 assay 34); assay type: biochemical
T4 construct: purchased Cerep (LANCE kinase assay platform, contract assay)
T4 sequence (P49841 whole entry): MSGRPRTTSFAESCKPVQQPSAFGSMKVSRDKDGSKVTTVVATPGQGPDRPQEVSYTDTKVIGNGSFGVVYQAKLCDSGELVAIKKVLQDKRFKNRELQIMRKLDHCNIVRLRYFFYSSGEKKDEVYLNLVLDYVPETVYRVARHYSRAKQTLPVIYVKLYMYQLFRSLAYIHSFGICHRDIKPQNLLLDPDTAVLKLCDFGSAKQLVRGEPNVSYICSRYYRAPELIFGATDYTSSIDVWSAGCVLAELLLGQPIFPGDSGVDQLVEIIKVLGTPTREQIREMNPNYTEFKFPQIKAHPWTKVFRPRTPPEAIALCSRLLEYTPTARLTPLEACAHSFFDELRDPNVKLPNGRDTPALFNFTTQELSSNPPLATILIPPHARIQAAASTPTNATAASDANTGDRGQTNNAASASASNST

RKO = assay: cells; assay type: cell-based
DLD-1 = assay: cells; assay type: cell-based
hp70S6K1 (RPS6KB1) = target: T5, hp70S6K1 (RPS6KB1) (Homo sapiens, UniProt P23443); assay: Cerep LANCE kinase assay hp70S6K1 (S1 assay 31); assay type: biochemical
T5 construct: purchased Cerep (LANCE kinase assay platform, contract assay)
T5 sequence (P23443 whole entry): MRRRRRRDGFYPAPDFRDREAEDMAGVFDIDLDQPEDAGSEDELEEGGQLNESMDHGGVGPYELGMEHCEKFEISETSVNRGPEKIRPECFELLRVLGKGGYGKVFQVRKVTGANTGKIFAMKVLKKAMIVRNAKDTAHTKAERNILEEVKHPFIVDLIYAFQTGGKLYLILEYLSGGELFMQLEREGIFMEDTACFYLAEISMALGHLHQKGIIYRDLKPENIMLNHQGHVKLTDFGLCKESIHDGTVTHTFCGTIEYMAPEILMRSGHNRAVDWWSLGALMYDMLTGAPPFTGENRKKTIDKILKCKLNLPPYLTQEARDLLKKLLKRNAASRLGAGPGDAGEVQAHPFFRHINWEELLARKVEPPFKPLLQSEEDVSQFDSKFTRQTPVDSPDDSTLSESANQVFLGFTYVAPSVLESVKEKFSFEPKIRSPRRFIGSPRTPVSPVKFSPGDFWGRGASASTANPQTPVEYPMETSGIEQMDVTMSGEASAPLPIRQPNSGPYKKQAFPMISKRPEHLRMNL

NCI-H716 cells = assay: cells; assay type: cell-based, Human
[4] = Homo sapiens, SNU-C1, read-out: Basal_Viability ATP SNU-C1
[5] = Homo sapiens, HT-29, read-out: Basal_Viability ATP HT-29
[6] = Homo sapiens, COLO 320, read-out: Basal_Viability ATP Colo 320
[7] = Homo sapiens, HCT-116, read-out: Basal_Viability ATP HCT116
[8] = Rattus norvegicus, INS-1E, read-out: Insulin Secretion
[9] = Homo sapiens, read-out: Anti-Angiogenesis
[10] = Homo sapiens, SW480, read-out: Basal_Viability ATP SW480
[11] = Homo sapiens, HCT-116, read-out: GSK3b inh pretreated_Viability ATP HCT116
[12] = Mus musculus, C2C12, read-out: Wnt Pathway
[13] = Homo sapiens, RKO, read-out: Basal_Viability ATP RKO
[14] = Homo sapiens, DLD-1, read-out: Basal_Viability ATP DLD-1
[15] = kinase assay, read-out: p70S6K1
[16] = Homo sapiens, NCI-H716, read-out: GLP 1 Secretion

O=C(CCl)c1ccc(Cl)cc1Cl [2,2',4'-Trichloroacetophenone]
IC50 (SNU-C1; basal, read-out: Basal_Viability ATP SNU-C1): 2.98 µM | IC50 (HT-29; basal; read-out: Basal_Viability ATP HT-29): 8.52 µM | EC50 (HeLa cells; IC50 / EC50, HeLa): > 10 µM | IC50 (Colo320; basal; read-out: Basal_Viability ATP Colo 320): 0.53 µM | IC50 (HCT116; basal, read-out: Basal_Viability ATP HCT116): 6.3 µM | IC50 (hFLT3; read-out: FLT3): > 20 µM | IC50 (hJAK2; read-out: JAK2): > 20 µM | EC50 (INS-1E cells; IC50 / EC50; INS-1E; read-out: Insulin Secretion): > 10 µM | IC50 (hKDR; read-out: KDR): > 20 µM | IC50 ([1]; IC50 / EC50; endothelial tube area, ADSC/ECFC co-culture; read-out: Anti-Angiogenesis): 2.49 µM | IC50 (SW480; basal, read-out: Basal_Viability ATP SW480): 1.25 µM | IC50 ([2]; GSK3b inhibitor pretreated, read-out: GSK3b inh pretreated_Viability ATP HCT116): 1.1 µM | EC50 ([3]; IC50 / EC50; C2C12 beta-catenin translocation; read-out: Wnt Pathway): 0.373 µM | IC50 (hGSK3b; read-out: GSK3b): > 20 µM | IC50 (RKO; basal; read-out: Basal_Viability ATP RKO): 4.3 µM | IC50 (DLD-1; basal, read-out: Basal_Viability ATP DLD-1): 2.07 µM | IC50 (hp70S6K1 (RPS6KB1); read-out: p70S6K1): > 20 µM | EC50 (NCI-H716 cells; IC50 / EC50; NCI-H716; read-out: GLP 1 Secretion): > 10 µM

COc1ccc(-c2ccc3cc(C(=O)O)ccc3c2)cc1C12CC3CC(CC(C3)C1)C2 [Adapalene]
IC50 (SNU-C1; [4]): 1.78 µM | IC50 (HT-29; [5]): 1.12 µM | EC50 (HeLa cells; Homo sapiens, HeLa): > 10 µM | IC50 (Colo320; [6]): 0.787 µM | IC50 (HCT116; [7]): 0.59 µM | IC50 (hFLT3; kinase assay, read-out: FLT3): > 20 µM | IC50 (hJAK2; kinase assay, read-out: JAK2): 5.57 µM | EC50 (INS-1E cells; [8]): > 10 µM | IC50 (hKDR; kinase assay, read-out: KDR): 7.1 µM | IC50 [1, 9]: 0.524 µM | IC50 (SW480; [10]): 0.405 µM | IC50 [2, 11]: 0.945 µM | EC50 [3, 12]: > 10 µM | IC50 (hGSK3b; kinase assay, read-out: GSK3b): 7.25 µM | IC50 (RKO; [13]): 0.444 µM | IC50 (DLD-1; [14]): 0.597 µM | IC50 (hp70S6K1 (RPS6KB1); [15]): > 20 µM | EC50 (NCI-H716 cells; [16]): > 10 µM

CCCSc1ccc2nc(NC(=O)OC)[nH]c2c1 [Albendazole]
IC50 (SNU-C1; [4]): > 20 µM | IC50 (HT-29; [5]): > 20 µM | EC50 (HeLa cells; Homo sapiens, HeLa): 0.0612 µM | IC50 (Colo320; [6]): 0.502 µM | IC50 (HCT116; [7]): 0.0852 µM | IC50 (hFLT3; read-out: FLT3): > 20 µM | IC50 (hJAK2; read-out: JAK2): > 20 µM | EC50 (INS-1E cells; [8]): > 10 µM | IC50 (hKDR; read-out: KDR): > 20 µM | IC50 [1, 9]: 0.355 µM | IC50 (SW480; [10]): > 20 µM | IC50 [2, 11]: 0.154 µM | EC50 [3, 12]: 1.28 µM | IC50 (hGSK3b; read-out: GSK3b): > 20 µM | IC50 (RKO; [13]): 0.165 µM | IC50 (DLD-1; [14]): 0.108 µM | IC50 (hp70S6K1 (RPS6KB1); read-out: p70S6K1): > 20 µM | EC50 (NCI-H716 cells; [16]): > 10 µM

Cn1cnc([N+](=O)[O-])c1Sc1ncnc2nc[nH]c12 [Azathioprine]
IC50 (SNU-C1; [4]): > 20 µM | IC50 (HT-29; [5]): > 20 µM | EC50 (HeLa cells; Homo sapiens, HeLa): > 10 µM | IC50 (Colo320; [6]): 10.3 µM | IC50 (HCT116; [7]): 0.207 µM | IC50 (hFLT3): > 20 µM | IC50 (hJAK2): > 20 µM | EC50 (INS-1E cells; [8]): > 10 µM | IC50 (hKDR): > 20 µM | IC50 [1, 9]: > 10 µM | IC50 (SW480; [10]): 9.44 µM | IC50 [2, 11]: 0.623 µM | EC50 [3, 12]: > 10 µM | IC50 (hGSK3b): > 20 µM | IC50 (RKO; [13]): 2.66 µM | IC50 (DLD-1; [14]): 0.364 µM | IC50 (hp70S6K1 (RPS6KB1)): > 20 µM | EC50 (NCI-H716 cells; [16]): > 10 µM

CC(=O)Oc1ccc(C2(c3ccc(OC(C)=O)cc3)Oc3ccccc3NC2=O)cc1 [Bisoxatin diacetate]
IC50 (SNU-C1; read-out: Basal_Viability ATP SNU-C1): > 20 µM | IC50 (HT-29; read-out: Basal_Viability ATP HT-29): > 20 µM | EC50 (HeLa cells): > 10 µM | IC50 (Colo320; read-out: Basal_Viability ATP Colo 320): > 20 µM | IC50 (HCT116; read-out: Basal_Viability ATP HCT116): 2.42 µM | IC50 (hFLT3; read-out: FLT3): > 20 µM | IC50 (hJAK2; read-out: JAK2): > 20 µM | EC50 (INS-1E cells; read-out: Insulin Secretion): > 20 µM | IC50 (hKDR; read-out: KDR): > 20 µM | IC50 ([1]; read-out: Anti-Angiogenesis): 2.27 µM | IC50 (SW480; read-out: Basal_Viability ATP SW480): 9.19 µM | IC50 ([2]; read-out: GSK3b inh pretreated_Viability ATP HCT116): 3.26 µM | EC50 ([3]; read-out: Wnt Pathway): 14 µM | IC50 (hGSK3b; read-out: GSK3b): > 20 µM | IC50 (RKO; read-out: Basal_Viability ATP RKO): 9.23 µM | IC50 (DLD-1; read-out: Basal_Viability ATP DLD-1): 19.7 µM | IC50 (hp70S6K1 (RPS6KB1); read-out: p70S6K1): > 20 µM | EC50 (NCI-H716 cells; read-out: GLP 1 Secretion): > 10 µM

COc1ccc2cc1Oc1ccc(cc1)C[C@H]1c3c(cc4c(c3Oc3cc5c(cc3OC)CCN(C)[C@@H]5C2)OCO4)CCN1C [Cepharanthine]
IC50 (SNU-C1; [4]): 7.48 µM | IC50 (HT-29; Homo sapiens, HT-29; read-out: Basal_Viability ATP HT-29): 1.36 µM | EC50 (HeLa cells; Homo sapiens, HeLa, IC50 / EC50, HeLa): > 10 µM | IC50 (Colo320; Homo sapiens, COLO 320; read-out: Basal_Viability ATP Colo 320): 1.43 µM | IC50 (HCT116; [7]): 9.54 µM | IC50 (hFLT3; read-out: FLT3): > 20 µM | IC50 (hJAK2; read-out: JAK2): > 20 µM | EC50 (INS-1E cells; Rattus norvegicus; IC50 / EC50; INS-1E; read-out: Insulin Secretion): > 10 µM | IC50 (hKDR; read-out: KDR): > 20 µM | IC50 ([1]; Homo sapiens, IC50 / EC50; endothelial tube area, ADSC/ECFC co-culture; read-out: Anti-Angiogenesis): 3.02 µM | IC50 (SW480; Homo sapiens, SW480, basal, read-out: Basal_Viability ATP SW480): 0.308 µM | IC50 ([2]; Homo sapiens, HCT-116, GSK3b inhibitor pretreated, read-out: GSK3b inh pretreated_Viability ATP HCT116): 3.57 µM | EC50 ([3]; Mus musculus, C2C12, IC50 / EC50; C2C12 beta-catenin translocation; read-out: Wnt Pathway): 2.05 µM | IC50 (hGSK3b; read-out: GSK3b): > 20 µM | IC50 (RKO; Homo sapiens, RKO; read-out: Basal_Viability ATP RKO): 3.79 µM | IC50 (DLD-1; [14]): 12.4 µM | IC50 (hp70S6K1 (RPS6KB1); read-out: p70S6K1): > 20 µM | EC50 (NCI-H716 cells; Homo sapiens; IC50 / EC50; NCI-H716; read-out: GLP 1 Secretion): > 10 µM

COC(=O)Nc1nc2ccc(C(=O)C3CC3)cc2[nH]1 [Ciclobendazole]
IC50 (SNU-C1; Homo sapiens, SNU-C1, basal, SNU-C1, read-out: Basal_Viability ATP SNU-C1): > 20 µM | IC50 (HT-29; Homo sapiens; basal; HT-29; read-out: Basal_Viability ATP HT-29): 1.68 µM | EC50 (HeLa cells; Homo sapiens, HeLa, S2 Table, HeLa, 20 = no response at highest concentration): 0.416 µM | IC50 (Colo320; Homo sapiens; basal; Colo 320; read-out: Basal_Viability ATP Colo 320): 0.156 µM | IC50 (HCT116; Homo sapiens, HCT-116, basal, HCT116, read-out: Basal_Viability ATP HCT116): 0.174 µM | IC50 (hFLT3; kinase assay, read-out: FLT3): 6.14 µM | IC50 (hJAK2; kinase assay, read-out: JAK2): > 20 µM | EC50 (INS-1E cells; Rattus norvegicus, INS-1E; read-out: Insulin Secretion): > 10 µM | IC50 (hKDR; kinase assay, read-out: KDR): 15.1 µM | IC50 ([1]; Homo sapiens; read-out: Anti-Angiogenesis): 1.19 µM | IC50 (SW480; Homo sapiens, SW480, basal, SW480, read-out: Basal_Viability ATP SW480): > 20 µM | EC50 ([3]; Mus musculus, C2C12; read-out: Wnt Pathway): 0.349 µM | IC50 (hGSK3b; kinase assay, read-out: GSK3b): 14.9 µM | IC50 (RKO; Homo sapiens; basal; RKO; read-out: Basal_Viability ATP RKO): 0.162 µM | IC50 (DLD-1; Homo sapiens, DLD-1, basal, DLD-1, read-out: Basal_Viability ATP DLD-1): 5.46 µM | IC50 (hp70S6K1 (RPS6KB1); [15]): > 20 µM | EC50 (NCI-H716 cells; Homo sapiens, NCI-H716; read-out: GLP 1 Secretion): > 10 µM

Reference: PMC4503722, “Novel Phenotypic Outcomes Identified for a Public Collection of Approved Drugs from a Publicly Accessible Panel of Assays” (PLoS ONE, 2015)
